Source: the Kinase Knowledgebase extract (Sharma et al. 2016)

Molecular target: PIK3CB;PIK3CG;PIK3CD;PIK3CA (human) (UniProt P48736)
Assay: Inhibition of PIK3CA/PIK3CB/PIK3CD/PIK3CG Kinase Activity

| IC50 [nM] | SMILES |
| --- | --- |
| 77 | CN(CCO)c1cc(C(=O)O)nc2c(-c3cccc4[nH]ccc34)nc(N3CCOCC3)nc12 |
| 780 | CNc1cc(C(=O)O)nc2c(-c3cccc4[nH]ccc34)nc(N3CCOCC3)nc12 |
| 2490 | COCc1cccc(-c2nc(N3CCOCC3)nc3c(NCCO)cc(C(=O)O)nc23)c1 |
| 57 | O=C(O)c1cc(-c2cccc3ccccc23)c2nc(N3CCOCC3)nc(-c3cccc(O)c3)c2n1 |
| 678 | O=C(O)c1cc(Cl)c2nc(N3CCOCC3)nc(-c3ccccc3)c2n1 |
| 220 | CN(CCO)c1cc(C(=O)O)nc2c(-c3ccc(F)cc3O)nc(N3CCOCC3)nc12 |
| 303 | CN(CCO)c1cc(C(=O)O)nc2c(-c3ccc(F)c(CO)c3)nc(N3CCOCC3)nc12 |
| 27 | O=C(O)c1cc(NCCO)c2nc(N3CCOCC3)nc(-c3cccc(CO)c3)c2n1 |
| 128 | COCCNc1cc(C(=O)O)nc2c(-c3cccc4[nH]ccc34)nc(N3CCOCC3)nc12 |
| 732 | O=C(O)c1cc(NCCO)c2nc(N3CCOCC3)nc(-c3ccc(O)cc3)c2n1 |
| 26 | CS(=O)(=O)c1cc(C(=O)O)nc2c(-c3cccc(F)c3O)nc(N3CCOCC3)nc12 |
| 9 | COCCN(C)c1cc(C(=O)O)nc2c(-c3cccc(F)c3O)nc(N3CCOCC3)nc12 |
| 1290 | COCCN(C)c1cc(C(=O)O)nc2c(-c3cc(F)cc(F)c3)nc(N3CCOCC3)nc12 |
| 23 | CN(C)c1cc(C(=O)O)nc2c(-c3ccccc3O)nc(N3CCOCC3)nc12 |
| 8 | COCCN(C)c1cc(C(=O)O)nc2c(-c3cccc(CO)c3)nc(N3CCOCC3)nc12 |
| 139 | CS(=O)(=O)c1cc(C(=O)O)nc2c(-c3cc(F)ccc3O)nc(N3CCOCC3)nc12 |
| 24 | COc1ccccc1-c1cc(C(=O)O)nc2c(-c3cccc(O)c3)nc(N3CCOCC3)nc12 |
| 290 | COCCN(C)c1cc(C(=O)O)nc2c(-c3ccc(O)cc3)nc(N3CCOCC3)nc12 |
| 74 | CN(CCO)c1cc(C(=O)O)nc2c(-c3cccc(CO)c3)nc(N3CCOCC3)nc12 |
| 62 | COCCN(C)c1cc(C(=O)O)nc2c(-c3ccc(F)cc3O)nc(N3CCOCC3)nc12 |
| 73 | COCCNc1cc(C(=O)O)nc2c(-c3cc(F)ccc3O)nc(N3CCOCC3)nc12 |
| 15 | CS(=O)(=O)N1CCN(c2cc(C(=O)O)nc3c(-c4cccc(O)c4)nc(N4CCOCC4)nc23)CC1 |

| IC50 [nM] | SMILES |
| --- | --- |
| 304 | CNc1cc(C(=O)O)nc2c(-c3cc(F)ccc3O)nc(N3CCOCC3)nc12 |
| 18 | COCCNc1cc(C(=O)O)nc2c(-c3cccc(F)c3O)nc(N3CCOCC3)nc12 |
| 30 | CS(=O)(=O)N1CCN(c2cc(C(=O)O)nc3c(-c4ccccc4)nc(N4CCOCC4)nc23)CC1 |
| 855 | O=C(O)c1ccc2nc(N3CCOCC3)nc(-c3ccc(O)cc3)c2n1 |
| 350 | CN(C)c1cc(C(=O)O)nc2c(-c3ccc(O)cc3)nc(N3CCOCC3)nc12 |
| 412 | CNc1cc(C(=O)O)nc2c(-c3ccc(F)cc3O)nc(N3CCOCC3)nc12 |
| 335 | CS(=O)(=O)c1cc(C(=O)O)nc2c(-c3ccc(O)c(F)c3)nc(N3CCOCC3)nc12 |
| 48 | CNc1cc(C(=O)O)nc2c(-c3cccc(F)c3O)nc(N3CCOCC3)nc12 |
| 225 | Cc1cc(C(=O)O)nc2c(-c3cccc(O)c3)nc(N3CCOCC3)nc12 |
| 329 | CN(C)c1cc(C(=O)O)nc2c(-c3ccc(F)c(CO)c3)nc(N3CCOCC3)nc12 |
| 93 | COCCOc1cc(C(=O)O)nc2c(-c3cc(O)cc(F)c3)nc(N3CCOCC3)nc12 |
| 66 | CN(C)c1cc(C(=O)O)nc2c(-c3cc(F)ccc3O)nc(N3CCOCC3)nc12 |
| 28 | COCCN(C)c1cc(C(=O)O)nc2c(-c3cccc(O)c3)nc(N3CCOCC3)nc12 |
| 63 | O=C(O)c1ccc2nc(N3CCOCC3)nc(-c3cccc(O)c3)c2n1 |
| 1100 | CN(C)c1cc(C(=O)O)nc2c(-c3cccc(C#N)c3)nc(N3CCOCC3)nc12 |
| 2520 | COCCOc1cc(C(=O)O)nc2c(-c3ccc(O)cc3)nc(N3CCOCC3)nc12 |
| 5050 | COCc1cccc(-c2nc(N3CCOCC3)nc3c(N(C)C)cc(C(=O)O)nc23)c1 |
| 64 | O=C(O)c1cc(NCCO)c2nc(N3CCOCC3)nc(-c3cc(O)cc(F)c3)c2n1 |
| 19 | COCCN(C)c1cc(C(=O)O)nc2c(-c3cc(O)cc(F)c3)nc(N3CCOCC3)nc12 |
| 546 | COCCN(C)c1cc(C(=O)O)nc2c(-c3ccc(CO)cc3)nc(N3CCOCC3)nc12 |
| 75 | O=C(O)c1cc(NCCO)c2nc(N3CCOCC3)nc(-c3cccc(O)c3)c2n1 |
| 89 | COCCNc1cc(C(=O)O)nc2c(-c3ccc(F)cc3O)nc(N3CCOCC3)nc12 |

| IC50 [nM] | SMILES |
| --- | --- |
| 83 | CN(C)c1cc(C(=O)O)nc2c(-c3ccc(F)cc3O)nc(N3CCOCC3)nc12 |
| 169 | COCCN(C)c1cc(C(=O)O)nc2c(-c3ccc4[nH]ccc4c3)nc(N3CCOCC3)nc12 |
| 10 | CN(CCO)c1cc(C(=O)O)nc2c(-c3cccc(F)c3O)nc(N3CCOCC3)nc12 |
| 1850 | COCc1cccc(-c2nc(N3CCOCC3)nc3c(N(C)CCO)cc(C(=O)O)nc23)c1 |
| 82 | O=C(O)c1cc(NCCO)c2nc(N3CCOCC3)nc(-c3ccccc3O)c2n1 |
| 4490 | COc1cccc(-c2nc(N3CCOCC3)nc3ccc(C(=O)O)nc23)c1 |
| 255 | COCCOc1cc(C(=O)O)nc2c(-c3cccc(O)c3)nc(N3CCOCC3)nc12 |
| 108 | O=C(O)c1cc(Cl)c2nc(N3CCOCC3)nc(-c3cccc(O)c3)c2n1 |
| 1080 | COc1cccc(-c2nc(N3CCOCC3)nc3c(Cl)cc(C(=O)O)nc23)c1 |
| 564 | CN(C)CCN(C)c1cc(C(=O)O)nc2c(-c3cc(F)ccc3O)nc(N3CCOCC3)nc12 |
| 459 | CN(C)CCN(C)c1cc(C(=O)O)nc2c(-c3ccccc3O)nc(N3CCOCC3)nc12 |
| 936 | Cc1cc(O)ccc1-c1nc(N2CCOCC2)nc2c(N(C)CCO)cc(C(=O)O)nc12 |
| 15 | CS(=O)(=O)c1cc(C(=O)O)nc2c(-c3cc(O)cc(F)c3)nc(N3CCOCC3)nc12 |
| 137 | CN(C)CCN(C)c1cc(C(=O)O)nc2c(-c3cccc4[nH]ccc34)nc(N3CCOCC3)nc12 |
| 34 | CN(C)c1cc(C(=O)O)nc2c(-c3cccc(CO)c3)nc(N3CCOCC3)nc12 |
| 144 | CNc1cc(C(=O)O)nc2c(-c3cccc(O)c3)nc(N3CCOCC3)nc12 |
| 1830 | COCCNc1cc(C(=O)O)nc2c(-c3cccc(COC)c3)nc(N3CCOCC3)nc12 |
| 346 | COCCNc1cc(C(=O)O)nc2c(-c3ccc(CO)cc3)nc(N3CCOCC3)nc12 |
| 43 | O=C(O)c1cc(NCCO)c2nc(N3CCOCC3)nc(-c3cccc(F)c3O)c2n1 |
| 132 | CN(C)c1cc(C(=O)O)nc2c(-c3cccc4[nH]ccc34)nc(N3CCOCC3)nc12 |
| 80 | CC(=O)N1CCN(c2cc(C(=O)O)nc3c(-c4cccc(O)c4)nc(N4CCOCC4)nc23)CC1 |
| 504 | COCCNc1cc(C(=O)O)nc2c(-c3ccc(O)cc3)nc(N3CCOCC3)nc12 |
